Values of other authors as cited in patent US10160778B2, “Pyrimidine phosphonic acid esters” (Concert Pharmaceuticals, Inc., priority 2014, dated 2018).

Conditions: phase II study for the prevention of cytomegalovirus infection

For `CCCCCCCCCCCCCCCCOCCCOP(=O)(O)CO[C@H](CO)Cn1ccc(N)nc1=O` [brincidofovir, 3-(hexadecyloxy)propyl hydrogen ((((S)-1-(4-amino-2-oxopyrimidin-1 (2H)-yl)-3-hydroxypropan-2-yl)oxy)methyl)phosphonate], the dose-limiting side effect is given as “diarrhea”.
